The NIST ThermoML archive (doi:10.1016/j.jct.2009.07.013)

Conditions: Liquid, Vibrating tube method

CC(C)CCCC(C)CCCC(C)CCCCC(C)CCCC(C)CCCC(C)C (stereo unspecified) [2,6,10,15,19,23-hexamethyltetracosane]
mass density [kg/m3]
Conditions	298.15 K	323.15 K	348.15 K	373.15 K	398.15 K
100 kPa	804.9	789	773	–	–
1000 kPa	805.4	789.6	773.7	758	742.1
5000 kPa	807.8	792.3	776.7	761.3	745.9
10000 kPa	810.7	795.5	780.3	765.3	750.4
15000 kPa	813.4	798.6	783.7	769.1	754.6
20000 kPa	816.1	801.5	787	772.7	758.6
30000 kPa	821.2	807.1	793.2	779.5	766.1
40000 kPa	826	812.3	799	785.8	772.9
45000 kPa	828.3	814.8	801.7	788.7	776.1
50000 kPa	830.5	817.2	804.3	791.6	779.1
60000 kPa	834.8	821.9	809.3	797.1	785

Cc1ccccc1 [toluene]
mass density [kg/m3]
Conditions	298.15 K	323.15 K	348.15 K	373.15 K	398.15 K
100 kPa	862	838.7	814.6	–	–
1000 kPa	862.7	839.5	815.6	791.1	765.3
5000 kPa	865.7	843.1	819.8	796	771.3
10000 kPa	869.4	847.4	824.7	801.8	778.3
15000 kPa	873	851.5	829.5	807.3	784.7
20000 kPa	876.4	855.4	834	812.5	790.8
30000 kPa	882.9	862.7	842.4	822	801.6
40000 kPa	889	869.5	850	830.6	811.2
45000 kPa	891.9	872.7	853.6	834.6	815.7
50000 kPa	894.7	875.9	857.1	838.4	819.9
60000 kPa	900.2	881.9	863.8	845.8	828
